Results on 1 molecule are retold here after patent EP4260858A1, “COMPOSITION COMPRISING PRIMIDONE AND PEG” (Christian-Albrechts-Universität zu Kiel, priority 2022, dated 2023).

Data set [1] relates to L929 fibroblasts. The data set can be described thus: TNFα + zVAD induced RIPK1-dependent necroptosis, FACS (7-AAD / Annexin V). The format is cell-based. On the procedure: (§1) The commercially available drug Necrostatin-1 (Nec-1s, 20 µM) acted as an internal control (inhibitor) of RIPK1-mediated cell death. All drugs were added 30 min before TNFα stimulation. RIPK1-mediated cell death was quantified by FACS analysis using 7-amino-actinomycin D and phosphatidylserine accessibility (Annexin V staining) as markers. […] The commercially available drug Necrostatin-1 (Nec-1s, 20 µM) acted as an internal control (inhibitor) of RIPK1-mediated cell death. All drugs were added 30 min before TNFα stimulation. RIPK1-mediated cell death was quantified by FACS analysis using 7-amino-actinomycin D and phosphatidylserine accessibility (Annexin V staining) as markers. […] All drugs were added 30 min before TNFα stimulation. […] All drugs were added 30 min before TNFα stimulation. Necroptotic cell death was quantified by FACS analysis using 7-amino-actinomycin D and phosphatidylserine accessibility (Annexin V staining) as markers.
(§2) The known RIPK1 kinase inhibitor Nec-1s was used as a control.
(§3) RIPK3-expressing NIH3T3 cells and L929 fibroblasts were obtained from the American Type Culture Collection (Manassas, VA, USA). Both cell lines were cultured in DMEM (Gibco, Thermo Fisher Scientific, Schwerte, Germany) supplemented with 10% (v/v) FCS (PAN-Biotech GmbH, Aidenbach, Germany), 100 U/ml penicillin, and 100 µg/ml streptomycin (both from Merck Millipore GmbH, Darmstadt, Germany). The cell lines were cultured in a humidified 5% CO2 atmosphere at 37°C. Negativity for mycoplasma was routinely checked using a MycoAlert Mycoplasma Detection Kit (Lonza, Cologne, Germany). Unless stated otherwise, assays were conducted using 1x 10^5 cells in 1 ml of medium.
(§4) Recombinant purified TNFα (# 570104) was purchased from BioLegend (Amsterdam, the Netherlands). The pan-caspase inhibitor zVAD-fmk (# 4026865) was purchased from Bachem (Weil am Rhein, Germany), Nec-1s (2263-1-BV) was obtained from BioCat (Heidelberg, Germany); primidone (# P7295) was purchased from Sigma-Aldrich Chemie GmbH (Taufkirchen, Germany). Polyethylenglycol (PEG300, # 202371) was purchased from Merck Millipore, Dimethyl sulfoxide (DMSO, A3672) was obtained from AppliChem (via Thermo Fisher Scientific).
(§5) For testing the ability of primidone to protect against RIPK1-driven cell death, cells were kept in 1 ml medium. To test 1 mM, 0.75 mM and 0.5 mM primidone in PEG300, we pipetted 15.6 µl, 11.7 µl and 7.8 µl, respectively, of the 64.144 mM stock solution to the 1 ml of the medium that contains the cells. […]
(§6) Phosphatidylserine exposure to the outer cell membrane of apoptotic cells or inner plasma membrane of necrotic cells and incorporation of 7-amino-actinomycin D (7-AAD) into necrotic cells was quantified by flow cytometry analysis. […]

Data set [2] has as its system NIH3T3 cells. Described as above. Format: cell-based. Here is the method: as §1, §2, §3, §4, §5, §6
The conditions of data set [3]: cited from earlier work.
Data set [4] has as its target T1, RIPK1 (Homo sapiens, UniProt Q13546).
T1 sequence (Q13546 1-671): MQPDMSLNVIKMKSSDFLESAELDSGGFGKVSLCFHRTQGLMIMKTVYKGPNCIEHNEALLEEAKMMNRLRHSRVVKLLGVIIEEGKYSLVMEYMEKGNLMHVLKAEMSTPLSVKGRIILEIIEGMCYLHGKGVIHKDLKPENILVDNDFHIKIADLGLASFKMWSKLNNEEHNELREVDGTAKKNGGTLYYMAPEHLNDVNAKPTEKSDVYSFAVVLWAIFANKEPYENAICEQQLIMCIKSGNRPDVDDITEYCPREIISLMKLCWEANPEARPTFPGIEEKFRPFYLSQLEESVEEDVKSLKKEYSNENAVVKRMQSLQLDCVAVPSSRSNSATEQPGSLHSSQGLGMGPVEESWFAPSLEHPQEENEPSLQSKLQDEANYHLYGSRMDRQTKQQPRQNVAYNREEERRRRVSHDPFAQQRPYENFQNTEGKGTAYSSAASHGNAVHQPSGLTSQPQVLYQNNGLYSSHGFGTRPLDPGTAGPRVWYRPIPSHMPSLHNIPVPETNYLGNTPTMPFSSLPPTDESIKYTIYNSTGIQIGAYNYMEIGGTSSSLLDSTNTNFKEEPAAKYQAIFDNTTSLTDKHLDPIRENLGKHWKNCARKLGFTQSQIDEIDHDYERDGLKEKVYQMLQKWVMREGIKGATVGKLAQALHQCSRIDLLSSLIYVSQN
To be noted: background statement, WO 2021/048162 A1; cited from earlier work.

Setting [5] is: primidone solubilized in PEG300, control Nec-1s 20 µM.

The structures appear in SMILES notation.

For the molecule `CCC1(c2ccccc2)C(=O)NCNC1=O` [primidone, 5-Ethyl-5-phenyl-1,3-diazinane-4,6-dione], the “protection from RIPK1-mediated necroptosis” value in data set [1] (10 ng/ml TNFα + 25 µM zVAD, 24 h, 37°C, equimolar primidone (0.5-1 mM) dissolved in DMSO or PEG300, added 30 min before TNFα) was “able to protect”; in data set [2] (100 ng/ml TNFα + 25 µM zVAD, 24 h, 37°C, equimolar primidone (0.5-1 mM) dissolved in DMSO or PEG300, added 30 min before TNFα) it was “able to protect”. Moreover, the “protective effects compared with Nec-1s” value in data set [1] (setting [5]) and in data set [2] (setting [5]) was “as strong as those observed for Nec-1s” in each case. Besides, in data set [3] (DMSO), the “soluble in dimethyl sulfoxide (DMSO) in amounts of up to” value is on record as “up to 44 mg/ml”. Moreover, in data set [3] (ethanol), the “soluble in ethanol up to a concentration” value is given as “about 3 mg/ml”. Moreover, the “soluble in water up to a concentration” value in data set [3] (water) is recorded as “about 0.5 mg/ml”. The “activation of RIPK1 by phosphorylation or autophosphorylation” value in data set [4] was “prevents the activation of RIPK1”.
